The values that follow come from paper PMC8081663, “A biosensor for the direct visualization of auxin” (Nature, 2021).

Assay in all cases: ITC, one-site model
Common to all, as to assay type: binding
In general terms: In ITC the heat of successive injections is recorded.

For assay [1], the target named is T1, TrpR (Escherichia coli, UniProt P0A881, S88Y/T44L/T81M).
T1 construct: TrpR without fluorescent proteins, pET21b(+), expressed in E. coli BL21(DE3), NiIMAC and Superdex S75; homodimer; template Trp-CTY / Trp-CTYT sensors (Addgene 13533, 13534)
The text has this: (§1) ITC, one-site model on TrpR

Assay [2] concerns the target T2, TrpR (Escherichia coli, UniProt P0A881).
T2 construct: TrpR without fluorescent proteins, pET21b(+), expressed in E. coli BL21(DE3), NiIMAC and Superdex S75; homodimer; template Trp-CTY / Trp-CTYT sensors (Addgene 13533, 13534)
Excerpt: as §1

Assay [3] concerns the target T3, TrpR (Escherichia coli, UniProt P0A881, S88Y/T44L).
T3 construct: TrpR without fluorescent proteins, pET21b(+), expressed in E. coli BL21(DE3), NiIMAC and Superdex S75; homodimer; template Trp-CTY / Trp-CTYT sensors (Addgene 13533, 13534)
Excerpt: as §1

In assay [4] the target is T4, TrpR (Escherichia coli, UniProt P0A881, M42F/N87G/S88Y/T44L/T81M).
T4 construct: TrpR without fluorescent proteins, pET21b(+), expressed in E. coli BL21(DE3), NiIMAC and Superdex S75; homodimer; template Trp-CTY / Trp-CTYT sensors (Addgene 13533, 13534)
Excerpt: as §1

In assay [5] the target is T5, TrpR (Escherichia coli, UniProt P0A881, S88Y).
T5 construct: TrpR without fluorescent proteins, pET21b(+), expressed in E. coli BL21(DE3), NiIMAC and Superdex S75; homodimer; template Trp-CTY / Trp-CTYT sensors (Addgene 13533, 13534)
Excerpt: as §1

Assay [6] addresses T6, TrpR (Escherichia coli, UniProt P0A881, N87G/S88Y/T44L/T81M).
T6 construct: TrpR without fluorescent proteins, pET21b(+), expressed in E. coli BL21(DE3), NiIMAC and Superdex S75; homodimer; template Trp-CTY / Trp-CTYT sensors (Addgene 13533, 13534)
Excerpt: as §1

Take `O=C(O)Cc1c[nH]c2ccccc12` [IAA]: the Kd in assay [1] is 3 ± 0.1 µM; in assay [2], 137.4 ± 0.5 µM; in assay [3], 7.8 ± 0.3 µM; in assay [4], 1.5 ± 0.1 µM; in assay [5] it was 14.6 ± 0.1 µM; in assay [6] it was 1.6 µM.

On to `N#CCc1c[nH]c2ccccc12` [IAN], for which the dissociation constant Kd is 33.6 ± 0.2 µM in assay [1]; 63.7 ± 1.7 µM in assay [2]; 19.5 ± 0.6 µM in assay [3]; 14.3 ± 0.4 µM in assay [4]; 17.9 ± 0.6 µM in assay [5]; 46.4 ± 1.7 µM in assay [6].

The compound `N[C@@H](Cc1c[nH]c2ccccc12)C(=O)O` [TRP] returned a Kd in assay [2] of 25 ± 0.7 µM.

As usually defined, the Kd is the equilibrium constant for the complex coming apart. A higher Kd goes with weaker binding.
